# According to US12447156B2, “Treating progressive familial intrahepatic cholestasis (PFIC) with IBAT inhibitors” (ALBIREO AB, priority 2020, dated 2025):
# Tests used:
# patients with PFIC [1] = test: PEDFIC 2 open-label phase 3 extension trial, interim analysis: efficacy; format: in vivo, human; details: for mean change from baseline in sBAs through PEDFIC 2 week 12: odevixibat naive at PEDFIC 2 baseline
# Procedure: After treatment in the first trial (Example 1), patients were eligible to enroll in a second trial, a 72-week open-label extension trial. In this ongoing 72-week open-label extension trial, PFIC patients were treated with odevixibat 120 μg/kg/day. The 69 patients (PFIC1 (26%), PFIC2 (65%) or PFIC3 (7%)) treated with 120 μg/kg/day for up to 48 weeks experienced a durable effect on serum bile acids reduction and improvement in growth velocity based on review of z scores for height, weight and BMI, and improvement in ALT, AST and total bilirubin. The effects were maintained for patients treated for 18 months or longer. The example details the interim analysis through 24 weeks of treatment.
# Study Design • This phase 3 study included a screening period (for newly enrolled patients [i.e., cohort 2] only) and a 72-week treatment period (FIG. 9) in which all patients received oral, once-daily odevixibat 120 μg/kg. • Patients returned to the clinic 4 and 12 weeks after the first dose of odevixibat and then approximately every 10 to 12 weeks thereafter. • Following the 72-week treatment period, patients either enrolled in an optional extension for continued treatment or returned for a follow-up visit 4 weeks after ending study drug. Outcomes, Assessments, and Statistical Analysis • The primary efficacy outcomes were to assess the effects of odevixibat on sBAs and pruritus, including mean changes and proportion of patients meeting response criteria. • sBA responders were defined as patients who achieved a normalization of sBAs or reduction of ≥70%. • Pruritus responders were defined as patients who achieved a ≥1-point drop on the pruritus assessment. • Secondary outcomes included characterizing the long-term safety and tolerability of odevixibat, as well as the effects of odevixibat on growth, biliary diversion and/or liver transplantation, and markers of cholestasis and liver disease. • For the P1O and PIP groups, there were 2 baselines (PEDFIC 1 baseline and PEDFIC 2 baseline); for those in cohort 2, baseline refers to the value prior to initiation of odevixibat in PEDFIC 2. • This interim analysis focuses on data collected after 24 weeks of treatment in PEDFIC 2. • T tests were used to calculate P values for primary outcomes in the P1O group only; other outcomes were summarized descriptively.
# patients with PFIC [2] = test: Pooled PEDFIC 1/2: relationships between changes in autotaxin, pruritus and serum bile acids (weeks 25-48); format: in vivo, human
# Procedure: Phase 3 study data of 77 patients treated with odevisibat was pooled from the PEDFIC 1 and PEDFIC 2 studies. In PEDFIC 1, patients received placebo or odevixibat 40 or 120 μg/kg/day for 24 weeks; in PEFFIC 2, patients were enrolled in an ongoing extension study, with all patients receiving 120 μg/kg/day. At the data cutoff, 77 patients had received odevixibat. The median length of odevixibat treatment was 37 weeks, with a range of 1-108 weeks. Most patients (88%) were continuing on treatment. Characteristics of patients with available data at weeks 25-48 who were included in the current analyses were generally similar to the overall study population.
# Autotaxin was assessed prior to treatment and throughout PEDFIC 1 and PEDFIC 2. Caregivers evaluated patients' pruritus using the validated PRUCISION scale, where scores range from 0 to 4; higher scores indicate worse symptoms. Serum bile acid measurements were taken at all study visits.
# Relationships between changes from baseline to weeks 25-48 in autotaxin, pruritus, and serum bile acid levels were assessed as post hoc analyses. Changes from baseline were summarized descriptively. Pearson coefficients and P values were calculated for correlations. Responders were defined as ≥70% reduction from baseline in serum bile acids or serum bile acids ≤70 μmol/L at last assessment up to week 48 and/or pruritus score reduction of ≥1 point from baseline based on last available monthly or 12-week interval score up to week 48.
# Values are based on last assessment up to week 48. For serum bile acids, this was the average value from weeks 46 and 48 when available; otherwise, the last available assessment in the interval was used. For pruritus, last monthly score was used when available; otherwise, the score from the last 12 weeks was used. For autotaxin, the last assessment within the interval was used.
# [3] = Cohort 2, through week 24 of PEDFIC 2, n 4
# [4] = P1O, through week 24 of PEDFIC 2, n 21
# [5] = P1P, through week 24 of PEDFIC 2, n 9
# [6] = patients analyzed in correlation analyses, N=44
smiles,measurement,setting,value
"CCCCC1(CCCC)CN(c2ccccc2)c2cc(SC)c(OCC(=O)N[C@@H](C(=O)N[C@@H](CC)C(=O)O)c3ccc(O)cc3)cc2S(=O)(=O)N1 [Odevixibat, 1,1-dioxo-3,3-dibutyl-5-phenyl-7-methylthio-8-(N-{(R)-α-[N-((S)-1-carboxypropyl)carbamoyl]-4-hydroxybenzyl}carbamoylmethoxy)-2,3,4,5-tetrahydro-1,2,5-benzothiadiazepine]","PELD/MELD, Mean Change From Baseline (SE)","patients with PFIC [1]; Cohort 2, through week 24 of PEDFIC 2, n 2",1.7 (5.8)
same,"APRI, Mean Change From Baseline (SE)",patients with PFIC [1]; [3],0.1 (0.2)
same,"Serum ALT, Mean Change From Baseline (SE)",patients with PFIC [1]; [3],−9.8 (31.1) U/L
same,"Serum AST, Mean Change From Baseline (SE)",patients with PFIC [1]; [3],−7.8 (16.2) U/L
same,"Total bilirubin, Mean Change From Baseline (SE)",patients with PFIC [1]; [3],−0.2 (0.5) mg/dL
same,mean sBAs at PEDFIC 2 week 24,"patients with PFIC [1]; P1O group, ~48 weeks cumulative odevixibat exposure, PEDFIC 1 baseline 251.8",85.1 µmol/L
same,mean monthly pruritus score at PEDFIC 2 week 24,"patients with PFIC [1]; P1O group, PEDFIC 1 baseline 3.0",1.4
same,mean height Z score at week 24 of PEDFIC 2,"patients with PFIC [1]; P1O group, PEDFIC 1 baseline −1.6",−0.5
same,mean weight Z score after 48 weeks,"patients with PFIC [1]; P1O group, baseline −0.9",0.2
same,"PELD/MELD, Mean Change From Baseline (SE)","patients with PFIC [1]; P1O, through week 24 of PEDFIC 2, n 17",−0.2 (0.3)
same,"APRI, Mean Change From Baseline (SE)","patients with PFIC [1]; P1O, through week 24 of PEDFIC 2, n 18",−0.0 (0.1)
same,"Serum AST, Mean Change From Baseline (SE)","patients with PFIC [1]; P1O, through week 24 of PEDFIC 2, n 20",−14.6 (10.0) U/L
same,"Serum ALT, Mean Change From Baseline (SE)",patients with PFIC [1]; [4],−26.9 (22.6) U/L
same,"Total bilirubin, Mean Change From Baseline (SE)",patients with PFIC [1]; [4],−0.2 (0.1) mg/dL
same,mean sBAs over the course of PEDFIC 2,"patients with PFIC [1]; P1P group (placebo in PEDFIC 1), 120 μg/kg/day, PEDFIC 2 baseline 270.8",155.6 µmol/L
same,"APRI, Mean Change From Baseline (SE)",patients with PFIC [1]; [5],0.1 (0.1)
same,"PELD/MELD, Mean Change From Baseline (SE)",patients with PFIC [1]; [5],−1.4 (1.2)
same,"Serum ALT, Mean Change From Baseline (SE)",patients with PFIC [1]; [5],16.3 (20.7) U/L
same,"Serum AST, Mean Change From Baseline (SE)",patients with PFIC [1]; [5],−1.7 (5.6) U/L
same,"Total bilirubin, Mean Change From Baseline (SE)",patients with PFIC [1]; [5],−1.6 (1.3) mg/dL
same,patients who underwent surgical biliary diversion or had a liver transplant,"patients with PFIC [1]; PEDFIC 1 baseline through week 24 of PEDFIC 2, 2 patients",3%
same,change in mean sBAs from baseline to week 12 of PEDFIC 2,"patients with PFIC [1]; cohort 2 (newly enrolled), 120 μg/kg/day",-73.1 µmol/L
same,mean sBAs at week 12 of PEDFIC 2,"patients with PFIC [1]; cohort 2 (newly enrolled), 120 μg/kg/day, baseline 221.5",157.0 µmol/L
same,mean change from baseline in sBAs through PEDFIC 2 week 12,"patients with PFIC [1]; PFIC1, n=5",−31.7
same,mean change from baseline in sBAs through PEDFIC 2 week 12,"patients with PFIC [1]; PFIC2, n=17",−120.8
same,mean change from baseline in sBAs through PEDFIC 2 week 12,"patients with PFIC [1]; PFIC3, n=3",−107.5
same,average sBAs relative to published threshold for PFIC2 disease modification,patients with PFIC [1]; patients treated for 48 weeks,fell below the published threshold for PFIC2 disease modification
same,"Autotaxin, percentage change from baseline to weeks 25-48, mean (SE)","patients with PFIC [2]; patients analyzed in correlation analyses, N=33",−50% (6%)
same,"Autotaxin, change from baseline to weeks 25-48, mean (SE)","patients with PFIC [2]; patients analyzed in correlation analyses, N=33, last assessment up to week 48",−1696 (266) ng/ml
same,"Serum bile acids, change from baseline to weeks 25-48, mean (SE)",patients with PFIC [2]; [6],−140 (25) μmol/L
same,"Serum bile acids, percentage change from baseline to weeks 25-48, mean (SE)",patients with PFIC [2]; [6],−49% (8%)
same,"Pruritus score (range, 0-4), change from baseline to weeks 25-48, mean (SE)","patients with PFIC [2]; patients analyzed in correlation analyses, N=44, PRUCISION scale",−1.4 (0.2)
same,"effect on autotaxin, pruritus and serum bile acids",patients with PFIC [2]; patients with PFIC,"reduced autotaxin, pruritus, and serum bile acids"
